# Laboratory results as given in patent US20230382871A1, “CSF1R KINASE INHIBITOR AND USE THEREOF” (SHANGHAI INSTITUTE OF MATERIA MEDICA, CHINESE ACADEMY OF …, priority 2020, published 2023).
# Values joined by “and” are separate entries in the source; they are usually repeats but may differ in a detail not shown here. Identical values can stand only once.
# Legend:
# [1] = treated patients; cited from earlier work
# [2] = system: BMDM cells; assay: CCK8 cell proliferation inhibition assay on CSF1-stimulated bone marrow-derived macrophages; type: cell-based, mice (BALB/c); settings: Mus musculus, 72 h exposure
# Method: Mice (BALB/c) were subjected to euthanasia and then immersed in 75% alcohol for 3-5 min. The tibias and femurs of the mice were removed with ophthalmic forceps and ophthalmic clips on an ultraclean table. The tibial and femoral joints were cut off and bone marrow cells were washed out with a sterile buffer. Bone marrow cells were filtered with a 70 µm nylon membrane. The filtrate was centrifuged and the supernatant was discarded. An erythrocyte lysate was added to the pellets, which were allowed to incubate for 3-4 min. Then, a sterile buffer was added to stop the lysis reaction. The reactant was centrifuged and the supernatant was discarded, thereby yielding bone marrow cell pellets. The cells were cultured in 1640 medium (supplemented with FBS and 10 ng/mL of CSF1) for 5 to 7 days and identified as macrophages by flow cytometry. CCK8 cell counting kits were used in this assay. Bone marrow-derived macrophages, after induction by CSF1 for 5 to 7 days, were seeded into 96-well culture plates and allowed to incubate overnight. Then, the cells were exposed to compounds at various concentrations for 72 h. A blank control group was set. 10 μL of CCK8 reagent was added to each well and the places were placed in an incubator for 4 to 12 h. The plates were read with a microplate reader at a wavelength of 450 nm. […] Each experiment was independently repeated for three times.
# [3] = system: human glioma U87MG subcutaneous xenografts; assay: Human glioma U87MG subcutaneous xenografts in nude mice; type: in vivo, BALB/c nude mice; settings: 40 mg/kg bid × 21 po
# Method: BALB/c nude female mice of 3-4 weeks old were used, and were provided by […] […] OF MATERIA MEDICA, CHINESE ACADEMY OF SCIENCES.
# Human glioma U87MG cells were subcutaneously inoculated into the right axillary fossa of a nude mouse (5×10^6 cells/mouse). After a xenograft was formed, the tumor was transferred to a nude mouse for 1 passage.
# Tumor tissues at the vigorous growth stage were removed and cut into pieces of approximately 1.5 mm^3. The tumor fragments were inoculated subcutaneously into the right axillary fossa of nude mice under aseptic conditions. The diameters of the subcutaneous xenografts in nude mice were measured with a vernier caliper. The animals were randomly grouped after the xenografts reached an average volume of about 90 mm^3. Compound I was administered orally at doses of 40 mg/kg, 20 mg/kg and 10 mg/kg twice a day for 21 consecutive days. An equal volume of a blank preparation was administered orally twice a day for 21 consecutive days. The positive control drug Axitinib was administered orally at a dose of 40 mg/kg group twice a day for 21 consecutive days. An equal volume of water for injection was administered to the animals in the solvent group. Throughout the experiment, the diameters of the xenografts were measured twice a week and the mice were weighed at the same time. The tumor volume (TV) was calculated as TV=½×a×b^2, where “a” and “b” denote the length and width of a tumor, respectively. The relative tumor volume (RTV) was calculated from the measurement results with the calculation formula RTV=Vt/V0, in which V0 is the tumor volume measured upon administration after grouping (i.e., D0) and Vt is the tumor volume from each measurement. The evaluation index of anti-tumor activity is the relative tumor proliferation rate T/C (%), which is calculated as T/C (%)=(TRTV/CRTV)×100%, in which TRTV denotes the RTV from the treatment group and CRTV denotes the RTV from solvent group.
# [4] = system: M2-type macrophage marker CD206 in HT-29 tumor tissues; assay: Immunohistochemistry of M2-type macrophage marker CD206 in HT-29 tumor tissues; type: in vivo, nude mice; settings: Compound I 5, 10, 20 mg/kg; Axitinib 40 mg/kg
# Method: (§1) At the end of the in vivo experiments, U87MG and HT-29 xenografts in nude mice were removed and fixed with […] to prepare paraffin sections.
# (§2) Expression of individual proteins was assessed using multiplicative quick score method (MQS). This evaluation method takes into account both the staining intensity and the staining range. The method estimates the proportion of positive cells and gives a range score from 1 to 6 (1=1%-4%; 2=5%-19%; 3=20%-39%; 4=40%-59%; 5=60%-79%; 6=80%-100%). The average intensity score of positive stained cells was 0 to 3 (0=no staining; 1=weak staining; 2=moderate staining; 3=strong staining). The total score a (minimum 0 and maximum 18) is then calculated by multiplying the range score by the intensity score.
# For detecting the changes in the macrophage marker F4/80 and M2-type macrophage marker CD206 in the HT-29 tumor tissues, quantitative analysis (solvent: n=12, blank preparation: n=6, Compound I (5 mg/kg): n=6, Compound I (10 mg/kg): n=6, Compound I (20 mg/kg): n=6, Axitinib: n=6) was performed on all sections and the experimental data were analyzed for significant differences using the t-test. * denotes p<0.05 as compared with the blank preparation group, ** denotes p<0.01 as compared with the blank preparation group, and denotes p<0.001 as compared with the blank preparation group.
# [5] = system: macrophage marker F4/80 in HT-29 tumor tissues; assay: Immunohistochemistry of macrophage marker F4/80 in HT-29 tumor tissues; type: in vivo, nude mice; settings: Compound I 5, 10, 20 mg/kg; Axitinib 40 mg/kg
# Method: At the end of the in vivo experiments, U87MG and HT-29 xenografts in nude mice were removed and fixed with […] to prepare paraffin sections. Expression of individual proteins was assessed using multiplicative quick score method (MQS). This evaluation method takes into account both the staining intensity and the staining range. […] The average intensity score of positive stained cells was 0 to 3 (0=no staining; 1=weak staining; 2=moderate staining; 3=strong staining). The total score a (minimum 0 and maximum 18) is then calculated by multiplying the range score by the intensity score.
# [6] = system: human glioma U87MG brain in situ transplantation; assay: Survival in U87MG brain in situ transplantation model in nude mice; type: in vivo, BALB/cA nude mice
# [7] = system: M2-type macrophage marker CD206 in U87MG tumor tissues; assay: Immunohistochemistry of M2-type macrophage marker CD206 in U87MG tumor tissues; type: in vivo, nude mice; settings: 40 mg/kg
# Method: as §1, §2
# (§3) For detecting the changes in the macrophage marker F4/80 and M2-type macrophage marker CD206 in the U87MG tumor tissues, quantitative analysis (solvent: n=6, blank preparation: n=6, Compound I (10 mg/kg): n=6, Compound I (20 mg/kg): n=6, Compound I (40 mg/kg): n=6, Axitinib: n=4) was performed on all sections and the experimental data were analyzed for significant differences using the t-test. * denotes p<0.05 as compared with the blank preparation group, ** denotes p<0.01 as compared with the blank preparation group, and denotes p<0.001 as compared with the blank preparation group.
# [8] = system: human colorectal cancer HT-29 subcutaneous xenografts; assay: Human colorectal cancer HT-29 subcutaneous xenografts in nude mice; type: in vivo, BALB/c nude mice; settings: 40 mg/kg bid × 21 po
# Excerpt: BALB/c female nude mice of 6 weeks old were used, and were provided by Shanghai Lingchang Biotechnology Co., Ltd.
# Human colorectal cancer HT-29 cells were subcutaneously inoculated into the right axillary fossa of a nude mouse (5×10^6 cells/mouse). After a xenograft was formed, the tumor was transferred to a nude mouse for 1 passage.
# Tumor tissues at the vigorous growth stage were removed and cut into pieces of approximately 1.5 mm^3. The tumor fragments were inoculated subcutaneously into the right axillary fossa of nude mice under aseptic conditions. The diameters of the subcutaneous xenografts in nude mice were measured with a vernier caliper. The animals were randomly grouped after the xenografts reached an average volume of about 120 mm^3. Compound I was administered orally at doses of 20 mg/kg, 10 mg/kg and 5 mg/kg twice a day for 21 consecutive days. An equal volume of a blank preparation was administered orally twice a day for 21 consecutive days. The positive control drug Axitinib was administered orally at a dose of 40 mg/kg group twice a day for 21 consecutive days. An equal volume of water for injection was administered to the animals in the solvent group. Throughout the experiment, the diameters of the xenografts were measured twice a week and the mice were weighed at the same time. The tumor volume (TV) was calculated as TV=½×a×b^2, where “a” and “b” denote the length and width of a tumor, respectively. The relative tumor volume (RTV) was calculated from the measurement results with the calculation formula RTV=Vt/V0, in which V0 is the tumor volume measured upon administration after grouping (i.e., D0) and Vt is the tumor volume from each measurement. The evaluation index of anti-tumor activity is the relative tumor proliferation rate T/C (%), which is calculated as T/C (%)=(TRTV/CRTV)×100%, in which TRTV denotes the RTV from the treatment group and CRTV denotes the RTV from solvent group.
# [9] = system: macrophage marker F4/80 in U87MG tumor tissues; assay: Immunohistochemistry of macrophage marker F4/80 in U87MG tumor tissues; type: in vivo, nude mice; settings: 40 mg/kg, compared with blank preparation group
# Method: as §1, §2, §3
# [10] = 40 mg/kg, implantation day as Day 0
molecule,measurement,setting,value
Yervoy: an anti-CTLA-4 antibody,patients experiencing immune-related adverse events,[1],up to 60%
same,share of immune-related adverse events that were severe (grade 3-4),[1],10-30%
"FC(F)(F)c1ccc(CNc2ccc(Cc3c[nH]c4ncc(Cl)cc34)cn2)cn1 [PLX3397, Pexidartinib, reference compound]",IC50,[2],30 ± 9 nM
"CNC(=O)c1ccccc1Sc1ccc2c(/C=C/c3ccccn3)n[nH]c2c1 [Axitinib, reference compound]",Body Weight (g) D 0,[3]; D 0,16.0 g
same,"TV (mm^3, mean ± SD) D 0",[3]; D 0,88 ± 17 mm^3
same,Body Weight (g) D 21,[3]; D 21,18.0 g
same,RTV (mean ± SD),[3]; D 21,9.08 ± 5.66
same,"TV (mm^3, mean ± SD) D 21",[3]; D 21,795 ± 478 mm^3
same,T/C (%),[3]; Day 21,30.27%
same,"expression of CD206, HT-29 tumor tissue",[4],no inhibitory activity
same,"expression of F4/80, HT-29 tumor tissue",[5],no inhibitory activity
same,"Median survival time, MST",[6]; 40 mg/kg po twice a day from Day 8,41 days and 41.0 days
same,day of first death in the group,[6]; [10],28 days
same,day of last death in the group,[6]; [10],48 days
same,"ILS (%), Increase in Life Span","[6]; 40 mg/kg, vs solvent group MST",−10.87%
same,"expression of M2-type macrophage marker CD206, U87MG tumor tissue",[7],no significant effect
same,Body Weight (g) D 0,[8]; D 0,19.1 g
same,"TV (mm3, mean ± SD) D 0",[8]; D 0,123 ± 35 mm3
same,Body Weight (g) D 21,[8]; D 21,17.5 g
same,RTV (mean ± SD),[8]; D 21,4.30 ± 1.82
same,"TV (mm3, mean ± SD) D 21",[8]; D 21,505 ± 202 mm3
same,T/C (%),[8]; Day 21,48.88%
same,"expression of F4/80 in macrophages, U87MG tumor tissue",[9],no significant effect
